Laboratory results: patent publication US10519504B2, “Methods for treatment of oncological disorders using epimetabolic shifters, multidimensional intracellular molecules, or environmental influencers” (Berg LLC, priority 2009, dated 2019)

What was measured:
[1] = test system: HepG2 (liver cancer) cells; assay: Real-time PCR Angiogenesis Array; format: cell-based; conditions: 100 μM Q10, genes: ANGPTL3, ANGPTL4, CXCL1, CXCL3, CXCL5, ENG, ID3, MMP2, TIMP3
Method: The treatment was initiated on 1×10^5 cells per well, following the procedure utilized in the PaCa2 cells (above Examples 9-11). However, the total amount of RNA that was extracted from these samples was lower than expected. Reverse transcription is normally done using 1 μg of total RNA (determined by measurement at 260 nm). The maximum volume that can be used per reverse transcription is 8 μl.

SkBr-3 cells = assay: Real-time PCR Apoptosis Array; format: cell-based, human
Method: RNA was quantified by measuring Optical Density at 260 nm.
Changes in mRNA levels were evaluated using real-time PCR quantification to assess mRNA levels in pre-selected subsets containing […] pathway specific targets.
The assay method of RT-PCR was utilized to provide a measure of mRNA level changes to a total of 84 apoptotic pathway related proteins.

[2] = test system: Isocitrate Dehydrogenase-1 (IDH-1); assay: Western blot, IDH1 levels; format: cell-based, human
Method: The whole cell pellets were resuspended one at a time in 1 mL of C7 buffer and transferred to labeled 15 mL tubes. The samples were then sonicated in the cold room on ice using 6 sonic pulses with the setting at #14. The samples were spun for a short time to 2500 g after sonication and the samples transferred to 2 ml tubes. The pH was verified of each sample (pH should be 9.0) using the foam remaining in the […] sample tubes.
Alkylation and reduction of samples was performed for each sample by adding 10 ul of 1M acrylamide, 25 ul of tributylphoshene and incubation for 90 mins with intermittent mixing. After incubation, 10 ul of 1M DTT was added and the tubes were spun at 20,000 g at 20 deg C. for 10 minutes and transferred the supernatant to labeled Amicon Ultra centrifugal filter units with a 10 k cut off (Millipore catalog #UFC 801024). The samples were spun for 15 minutes at 2500 g in 2 intervals. The conductivity was measured for Chaps alone as well as the samples using a conductivity meter. If the conductivity of samples is high, then 1 ml of chaps was added for buffer exchange and spun again at 2500 g until the volume was down to 250 ul. […]
The samples were processed as per standard protocols as described above and the amount of protein in each of the samples was determined by Bradford assay. […]

COC1=C(OC)C(=O)C(C/C=C(\C)CC/C=C(\C)CC/C=C(\C)CC/C=C(\C)CC/C=C(\C)CC/C=C(\C)CC/C=C(\C)CC/C=C(\C)CC/C=C(\C)CCC=C(C)C)=C(C)C1=O [Q10, Coenzyme Q10]
genes regulated in the Angiogenesis Arrays [1]: List of genes regulated in the Angiogenesis Arrays | mRNAs Bcl2, Bcl2L1, Bcl2L11, Birc6, Bax, Xiap, Hprt1, Apaf1, Abl1, Braf (SkBr-3 cells; SkBr3, Q10 24 hr): affected | Bcl-xl mRNA level (SkBr-3 cells; apoptosis array): significant up-regulation | expression of IDH1 ([2]; HDFa, nFIB, HASMC): did not demonstrate significant changes in the expression pattern | expression of IDH1 ([2]; cancer cell lines MCF-7, SKMEL28, HepG2, PaCa-2): increased expression of IDH1
